Test results taken from paper PMC13112672, “The Drp1-CoQ10-Coa6-ETC axis represents a therapeutic potential for working memory impairment caused by neuronal mitochondrial dysfunction” (Translational Neurodegeneration, 2026).

Molecular target: T1, Coa6 (cytochrome c oxidase assembly factor 6) (Mus musculus, UniProt Q8BGD8)
T1 construct: E. coli BL21(DE3); Ni-bead purification (vector His tag, removal not mentioned)
T1 sequence (Q8BGD8 1-79): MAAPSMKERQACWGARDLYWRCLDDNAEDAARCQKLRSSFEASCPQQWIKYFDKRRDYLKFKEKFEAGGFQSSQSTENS
Test: surface plasmon resonance (CM5 chip, immobilised Coa6)
Format: binding
Conditions: analyte 0.39–25 μM CoQ10; protein amine-coupled, ~12,600 RU

- Kd: 24 µM
Compound: COC1=C(OC)C(=O)C(C/C=C(\C)CC/C=C(\C)CC/C=C(\C)CC/C=C(\C)CC/C=C(\C)CC/C=C(\C)CC/C=C(\C)CC/C=C(\C)CC/C=C(\C)CCC=C(C)C)=C(C)C1=O [CoQ10]
